Measurements: patent US9125898B2, “Acetam derivatives for pain relief” (NEUROTUNE AG, priority 2008, dated 2015)
Entries after “also recorded” stand apart in the source; their conditions may differ.

Experiments:
[1] = tested on: ddC induced mechanical allodynia in rats; test: ddC induced mechanical allodynia in rats, von Frey test; format: in vivo, rat; conditions: for Reversal of ddC-induced neuropathy (mechanical threshold, von Frey): FIG. 4, 15 min after drug administration
Method: Painful peripheral NP may be induced in rats by i.v. administration of 2′,3′-dideoxycytidine (ddC) mimicking what is seen in AIDS patients undergoing antiviral therapy. The ddC test represents a useful and predictive model to study molecules with analgesic potential in human neuropathic states.
Adult male SD rats (Harlan, Italy, 150-200 g weight) were used. Animals were treated with 25 mg/kg i.v. bolus of 2′,3′-dideoxycytidine, an inhibitor of nucleoside reverse transcriptase used for AIDS therapy that in rodents induces a peripheral neuropathy resulting in allodynic responses to mechanical stimuli. Symptoms severity peaks between 5 to 10 days after administration (Joseph, E. K. et al. —Pain 107 (2004) 147-158). Ten days after administration of ddC, as an intravenous (i.v.) bolus, test substances were administered every day, once a day or b.i.d for 4 weeks. Dosing was withheld in those days in which allodynic tests were performed, and lasted for 24 h and 48 h.
NT-11624 was dissolved in distilled water and was orally by gavage administered as follows • Group 1: 100 mg/kg b.i.d. for 14 days, followed by 50 mg/kg b.i.d. for 7 days, then 50 mg/kg u.i.d. for 7 days. • Group 2: 50 mg/kg b.i.d. for 28 days.
Pregabalin (3B Pharmachem (Wuhan) International Co.) was dissolved in 1% CMC (carboxymethylcellulose) and orally administered at the dose of 15 mg/kg b.i.d. for 28 days.
Thresholds for mechanical allodynia were measured using an electronic Von Frey apparatus. […] After 4 week drug administration, additional tests were performed beyond the 60 min point, at 4, 8, 24, 48 and 56 h. Results represent the mean (±S.E.M.) of mechanical thresholds expressed in grams.
Drugs: The following substance was used: NT-11624 (batch No. 0000104580 supplied by Brane Discovery Srl, Gerenzano Italy). NT-11624 was dissolved in distilled water and given p.o. every day, except in those days in which allodynic tests were performed and lasted for 24 h, 48 h and 56 h (i.e. days 1, 3, 7, 10, 14, 21, 28).
The following groups of treatment were utilized: • NT-11624 (Group 1): rats received 100 mg/kg b.i.d. of NT-11624 for 14 days, then 50 mg/kg b.i.d. for 7 days, then 50 mg/kg u.i.d. for 7 days. • NT-11624 (Group 2): rats received 50 mg/kg b.i.d. for 28 days • Pregabalin: rats received 15 mg/kg b.i.d. for 28 days
Administration volume was 10 ml/kg body weight. Pregabalin [3B Pharmachem (Wuhan), International Co] was dissolved in CMC 1% (carboxymethylcellulose, Sigma-Aldrich, Italy), and orally given as described before. Control rats received vehicle only.
ddC intravenous injection: ddC was dissolved in saline to a concentration of 25 mg/kg (1 ml) and was administered i.v. into the rat tail vein. Control rats were treated with an equal volume of saline i.v.
The administration of ddC produces dose-dependent mechanical hypersensitivity and allodynia peaking in severity between 5-10 days after the administration. The test is usually performed at day 10.
Von Frey test: Each animal was placed in a chamber with a mesh metal floor covered by a plastic dome that enabled the animal to walk freely, but not to jump. The mechanical stimulus was then delivered in the mid-plantar skin of left hind paw using an electronic Von Frey apparatus (37400 Dynamic Plantar Aesthesiometer; Ugo Basile, Comerio, Varese, Italy). The cut-off was fixed at 50 g, while the increasing force rate (ramp duration) was settled at 20 sec. […] At day 28, additional tests were performed at 4, 8, 24, 48 and 56 h after drug administration. Results represent the mean (±S.E.M.) of mechanical thresholds expressed as grams.

[2] = tested on: MIA induced hyperalgesia in the rat; test: MIA induced hyperalgesia in the rat (paw-pressure test); format: in vivo; conditions: for Mechanical threshold, before treatment, first day basal: baseline
From the text: Peripheral neuropathic induced in rats by administration into the left knee joint of MIA mimics chronic pain condition of osteoarthritis found in a large part of population over 60 years. The MIA test represents an useful and predictive model to study the anti-hyperalgesic potential of a drug in human osteoarthritic condition.
Drugs: The following substances were used: NT-11624 (batch n 66-MM3/16 supplied by Brane Discovery Sri, Gerenzano Italy) and tramadol (Tocris, UK). […] Control rats received saline only.
Sodium monoiodoacetate injection: A single intra-articular injection of sodium iodoacetate (MIA) was introduced into the right knee joint. […] Briefly, rats were deeply anaesthetized by ethylic ether. Following abolition of the hindpaw pinch withdrawal reflex, a 27-gauge needle was introduced into the joint cavity between the tibial plateau and femoral condyles. Once in place, 2 mg of MIA were solubilized in a volume of 25 ul and injected into the joint and the animal was allowed to recover for 14 days prior to pain assessment. It has consistently been shown that this dose of MIA causes osteoarthritic-like focal lesions in articular cartilage and subchondral bone thickening 14 days after administration Guingamp C. et al. Arthritis Rheum 40, 1670-9 (1997). Therefore this model can easily and quickly reproduce osteoarthritic-like lesions and functional impairment in rats, similar to that observed in human disease.
The administration of MIA induces in rats a hyperalgesic response to mechanical stimuli that reaches its statistical significance 5 days after administration and persists for 4 weeks (Fernihough et al. Pain 112:83-93 (2004)).
Control rats were treated with an equal volume of saline. […]
Starting from day 17 after MIA injection, paw pressure tests were performed.
Mechanical hyperalgesia: Paw mechanical sensitivity was determined using a Randall & Selitto apparatus exerting a force that increases at constant rate (32 g/s). The stimulus at which rats withdrawn the paw was evaluated before treatment (First day basal) and at the end of the treatment as following: before last treatment (pre-dose), and after last treatment (15, 30, 45, 60 min, 24, 48 and 72 h).
Results represent the mean of mechanical thresholds expressed as grams. To avoid any possible damage to the animal paw the maximum applied force was fixed at 240 g.

[3] = Group 1 down-titration schedule, p.o.
[4] = Group 2: 50 mg/kg b.i.d. p.o. for 28 days, 50 mg/kg
[5] = MIA rats, 14 days b.i.d. p.o. (NT-11624 150 mg/kg, tramadol 40 mg/kg)
[6] = MIA rats, 14 days b.i.d. p.o., NT-11624 150 mg/kg
[7] = MIA rats, single p.o. administration on saline b.i.d. (NT-11624 150 mg/kg, tramadol 40 mg/kg)
[8] = 15 mg/kg b.i.d. p.o. for 28 days

For `O=C1CN2C(=O)CCC2N1` (centres unmarked) [NT-11624, 2,5-dioxohexahydro-1H-pyrrolo[1,2-a]imidazole], the “Reversal of ddC-induced neuropathy (mechanical threshold, von Frey)” value [1] was “fully reverts”, the “Onset of anti-allodynic effect” value ([1]; Group 1: 100 mg/kg b.i.d. 14 days, then 50 mg/kg b.i.d. 7 days, then 50 mg/kg u.i.d. 7 days, p.o.) was “starting from the third day; also recorded: as of day 3” and the “Anti-allodynic effect 56 h from the last administration” value [1, 3] was “still significant protection; also recorded: robust effect”. For the same molecule, the “Anti-allodynic effect at day 14” value [1, 3] was “complete protection”, the “Anti-allodynic effect up to 48 h from the last administration (day 28)” value [1, 3] was “full reversal of allodynia” and the “Effect up to 24 h after the last administration” value ([1]; Group 2: 50 mg/kg b.i.d. p.o. for 28 days) was “clearly evident”. The “Effect 48 h after the last administration” value [1, 4] was “still significant; also recorded: still evident”, the “Onset of anti-pain response” value [1, 4] was “starting from day 10; also recorded: as of day 10” and the “Anti-hyperalgesic effect 15 min until 48 h after last dosing” value ([2]; 150 mg/kg b.i.d. oral, 2 weeks) was “lasted throughout the experiment”. For the same molecule, the “Paw pressure hyperalgesic response at the pre last administration test” value ([2]; 75 and 150 mg/kg b.i.d. oral, 2 weeks, 13 h after the evening administration of the previous day) was “significant reduction of the hyperalgesia”, the “Mechanical threshold, after last treatment 15 min” value [2, 5] was 72.6 ± 4.1 g and the “Mechanical threshold, after last treatment 30 min” value [2, 5] was 75.0 ± 2.2 g. For the same molecule, the “Mechanical threshold, after last treatment 45 min” value [2, 5] was 70.5 ± 2.7 g, the “Mechanical threshold, before last treatment, pre-dose” value [2, 5] was 65.1 ± 2.5 g and the “Mechanical threshold, after last treatment 60 min” value [2, 6] was 60.6 ± 4.2 g. For the same molecule, the “Mechanical threshold, after last treatment 24 h” value [2, 6] was 55.3 ± 4.8 g, the “Mechanical threshold, after last treatment 48 h” value [2, 6] was 43.9 ± 4.0 g and the “Mechanical threshold, after last treatment 72 h” value ([2]; MIA rats, 14 days b.i.d. p.o., NT-11624 150 mg/kg, mean of 4 rats) was 34.8 ± 3.7 g. The “Mechanical threshold, before treatment, first day basal” value ([2]; MIA rats, groups later treated 14 days b.i.d. p.o. (NT-11624 150 mg/kg, tramadol 40 mg/kg)) was 63.5 ± 3.2 g, the “Mechanical threshold, before treatment, first day basal” value ([2]; MIA rats, single administration groups (saline 14 days b.i.d. first)) was 60.4 ± 2.7 g and the “Mechanical threshold, before last treatment, pre-dose” value ([2]; MIA rats, single administration on saline b.i.d., before the single p.o. dose (NT-11624 150 mg/kg, tramadol 40 mg/kg)) was 23.9 ± 3.5 g. The “Mechanical threshold, after last treatment 15 min” value [2, 7] was 33.8 ± 3.1 g, the “Mechanical threshold, after last treatment 30 min” value [2, 7] was 39.3 ± 2.8 g and the “Mechanical threshold, after last treatment 45 min” value [2, 7] was 26.2 ± 3.1 g. For the same molecule, the “Antihyperalgesic activity at 48 h after the last treatment” value ([2]; NT-11624 150 mg/kg p.o., 14 days b.i.d.) was “statistically significant activity”, the “Duration of beneficial effect after last dosing” value ([2]; after a 2 week oral b.i.d. treatment) was “at least 48 h” and the “Effect of a single oral dose on mechanical threshold (in words)” value ([2]; single oral dose after saline b.i.d. for 14 days (NT-11624 150 mg/kg, tramadol 40 mg/kg)) was “significant increase of mechanical threshold only at 30 min”. The “Antihyperalgesic activity after the last treatment (in words)” value ([2]; treatment for 14 days b.i.d. p.o. (NT-11624 150 mg/kg, tramadol 40 mg/kg)) was “completely protects from MIA-induced hyperalgesia up to 24 h”.
With `CC(C)C[C@H](CN)CC(=O)O` [Pregabalin, reference compound] the “Onset of effect on allodynic threshold” value ([1]; 15 mg p.o. b.i.d.) was “modest but significant effect already from day 1”, the “Day of peak effect” value [1, 8] was 14 days and the “Effect of the last administration on day 28” value [1, 8] was “moderate beneficial effect that disappeared after 8 h”.
For `CC[C@@H](C(N)=O)N1CCCC1=O` [levetiracetam, reference compound], the “Reversal of ddC-induced neuropathy (mechanical threshold, von Frey)” value [1] was “not”.
